Reference: patent publication US20240366555A1, “SELECTIVE MTORC2 INHIBITOR AND USES THEREOF” (ALIAD BIOPHARMA, priority 2021, published 2024)

Tests used:
Pten KO mice = test: Elevated plus maze test in Pten KO mice; type: in vivo; settings: Pten KO mice administered athyriol; FIG. 2
Experimental: As Pten KO mice, Ptenf/f_cre/cre KO mice or Ptenf/f_cre/++ Het mice (KD) were obtained by mating Pten floxed/floxed mice and CAMKII-cre mice. DMSO or athyriol was intraperitoneally injected at 5 or 10 mg/kg for 2 weeks from the age of mice of 6 weeks, and a behavioral test was performed in 7 days after administration. Pten floxed/floxed mice were used as littermates of the same age as a normal control group.
In order to confirm whether emotional instability was improved, when athyriol was administered to an autism spectrum disorder animal model, Pten KO mice, an elevated plus maze test was performed. An anxiety disorder animal model behavioral test was evaluated as a tendency to avoid an open arm exposed to the elevated-plus maze and stay in a closed arm. Analysis was conducted with a video tracking system (Ethovision EPM program, Noldus information technology, Wageningen, Netherlands). In the elevated plus maze test measuring emotional instability disorder, when the emotional anxiety increases, the time spent in the closed arm increases compared to the time spent in the open arm.

mTORC2 signaling pathway = test: Immunoblot analysis of mTORC2 signaling pathway in A549 cells; type: cell-based, human
Experimental: In order to investigate the effect on the mTORC2 signaling pathway of norathyriol in a culture cell model, after treating norathyriol to a human cell line A549, Akt Ser473 phosphorylation, Akt Thr308 phosphorylation, and NDRG1 Thr346 phosphorylation were measured by immunoblot analysis over time. The A549 cells were cultured in RPMI culture medium in which 10% heat inactivated FBS and 1× GlutaMax were added. After seeding the A549 cells of 2×10^5 in a 60 mm culture dish and culturing them for 1 day, norathyriol was treated to the cells. The cells were washed with ice-cold 1× PBS twice, and then the cells were […] using RIPA buffer (50 mM Tris-HCl (pH7.4), 150 mM NaCl, 0.25% sodium deoxycholate, 1% NP-40, 1% SDS, 1 mM EDTA, 1 mM EGTA, 1 mM sodium β-glycerophosphate, 1 mM PMSF, 1 μg/ml leupeptin, 1 μg/ml pepstatin A, 10 nM aprotinin, 1 mM Na3VO4, 50 mM NaF, 10 nM calyculin A) on ice. After removing undissolved substances by centrifuging at 4° C. at 15,000× g for 15 minutes, the supernatant was recovered to determine the protein concentration with BCA protein assay kit (Thermo Fisher Scientific). 2× SDS-PAGE sample buffer in the same volume was added to the supernatant and boiled for 5 minutes, and then it was developed under a reducing condition by SDS-polyacrylamide gel electrophoresis. The developed protein was transferred into a PVDF membrane by an electro blotting method. The membrane was blocked in TBST containing 5% skim milk (100 mM Tris-Cl, pH 8.8, 150 mM NaCl, 0.1% Tween-20) at a room temperature for 1 hour, and then it was reacted with a primary antibody. After washing with TBST for 10 minutes 3 times, it was reacted with a secondary antibody conjugated with HRP. After washing with TBST for 10 minutes 3 times, it was reacted with an enhanced chemiluminescence (ECL) reagent to obtain an image of the protein combined with the secondary antibody. For the immunoblot analysis, AKT antibody (#4691, Cell Signaling), phospho-Ser473 AKT antibody (#4060, Cell Signaling), phospho-Thr308 AKT antibody (#2965, Cell Signaling), p70 S6 kinase antibody (#9202, Cell Signaling), and phospho-Thr389 p70 S6 kinase antibody (#9205, Cell Signaling) were used.
mTORC2 activates SGK1, and SGK1 phosphorylates NDRG1 Thr346. NDRG1 phosphorylated at Thr346 is removed by a ubiquitination-proteasome system. Accordingly, when the mTORC2 activity is inhibited, NDRG1 Thr346 phosphorylation is reduced, whereas NDRG1 protein increases.

[1] = tested on: mTORC2 signaling (Fox03a location); test: Fox03a intracellular location by immunofluorescent staining in A549; type: cell-based, human; settings: A549 cells, treated for 3 hours; FIG. 7c
Source text: mTORC2 activates SGK3, and SGK3 phosphorylates Fox03a, allowing Fox03a to remain in the cytoplasm. When mTORC2 is inhibited, Fox03a is dephosphorylated and translocated to the nucleus, and in the nucleus, it binds to FHRE located in a gene promoter to induce gene expression. Therefore, the change in the intracellular location of Fox03a and FHRE dependent gene expression become indicators for evaluating mTORC2 activity. In order to evaluate the effect of norathyriol on the mTORC2 activity, norathyriol was treated to A549, and then the change in the intracellular location of Fox03a was investigated by immunofluorescent staining.
Specifically, the A549 cells of 1×10^5 were seeded in a confocal dish coated with 35 mm collagen and cultured for 1 day. After treating norathyriol, the cells were fixed with 4% paraformaldehyde at 4° C. for 15 minutes. After treating PBS containing 0.5% Triton X-100 (PBS-T) at a room temperature for 5 minutes for permeabilization, PBS containing 5% normal goat serum and 1% gelatin was treated at a room temperature for 30 minutes for blocking. The Fox03a antibody diluted in 1% BSA was treated at a room temperature for 1 hour. After washing the culture dish with PBS-T, an FITC conjugated anti-rabbit secondary antibody diluted in 1% BSA was treated at a room temperature for 50 minutes. […]

COc1cc(O)c2c(=O)c3cc(O)c(O)cc3oc2c1 [athyriol, 1,6,7-Trihydroxy-3-methoxy-9H-xanthen-9-on]
reduction of time spent in the closed arm (Pten KO mice): 15% | time in the center zone (Pten KO mice): recovered to the normal control group level

O=c1c2cc(O)c(O)cc2oc2cc(O)cc(O)c12 [norathyriol, 1,3,6,7-tetrahydroxy-9H-xanthen-9-one]
Akt Ser473 phosphorylation (mTORC2 activity indicator) (mTORC2 signaling pathway; FIG. 7a): reduced | Akt Thr308 phosphorylation (PDK1 activity indicator) (mTORC2 signaling pathway; FIG. 7a): not reduced and rather increased after 24 hours | NDRG1 protein (mTORC2 signaling pathway; FIG. 7b): increased significantly | ratio of NDRG1 Thr346 phosphorylation to NDRG1 protein (mTORC2 signaling pathway; FIG. 7b): reduced | intracellular location of Fox03a [1]: moved to the nucleus
